# Measured values as given in ChEMBL document CHEMBL3817755, “Design, synthesis and biological evaluation of indazolepyrimidine based derivatives as anticancer agents with anti-angiogenic and antiproliferative activities” (Medchemcomm, 2016).
# pIC50: −log10 of the molar value.
# Tests used:
# [1] = Cytotoxicity against human PC3 cells after 72 hrs by SRB assay; settings: PC-3, 72 h
# [2] = Solubility of the compound; format: physicochemical
# CCRF-CEM = experiment: Growth inhibition of human CCRF-CEM cells after 48 hrs by SRB assay; format: functional
# K562 = experiment: Growth inhibition of human K562 cells after 48 hrs by SRB assay; format: functional; settings: K562, 48 h
# [3] = Growth inhibition of human MOLT4 cells after 48 hrs by SRB assay; format: functional; settings: MOLT-4, 48 h
# [4] = Growth inhibition of human RPMI8226 cells after 48 hrs by SRB assay; format: functional; settings: RPMI-8226, 48 h
# SR = experiment: Growth inhibition of human SR cells after 48 hrs by SRB assay; format: functional; settings: for CC50: read-out: LC50 (the source's name)
# A549 = experiment: Growth inhibition of human A549/ATCC cells after 48 hrs by SRB assay; format: functional; settings: A549, 48 h; for CC50: read-out: LC50 (the source's name)
# EKVX = experiment: Growth inhibition of human EKVX cells after 48 hrs by SRB assay; format: functional; settings: for CC50: read-out: LC50 (the source's name)
# NCI-H23 = experiment: Growth inhibition of human NCI-H23 cells after 48 hrs by SRB assay; format: functional; settings: NCI-H23, 48 h; for CC50: read-out: LC50 (the source's name)
# NCI-H460 = experiment: Growth inhibition of human NCI-H460 cells after 48 hrs by SRB assay; format: functional; settings: NCI-H460, 48 h
# NCI-H522 = experiment: Growth inhibition of human NCI-H522 cells after 48 hrs by SRB assay; format: functional; settings: NCI-H522, 48 h
# [5] = Growth inhibition of human COLO205 cells after 48 hrs by SRB assay; format: functional; settings: COLO 205, 48 h
# [6] = Growth inhibition of human HCC2998 cells after 48 hrs by SRB assay; format: functional; settings: HCC 2998, 48 h; for CC50: read-out: LC50 (the source's name)
# [7] = Growth inhibition of human HCT116 cells after 48 hrs by SRB assay; format: functional; settings: HCT-116, 48 h; for CC50: read-out: LC50 (the source's name)
# KM12 = experiment: Growth inhibition of human KM12 cells after 48 hrs by SRB assay; format: functional; settings: KM12, 48 h; for CC50: read-out: LC50 (the source's name)
# [8] = Growth inhibition of human SW620 cells after 48 hrs by SRB assay; format: functional; settings: SW-620, 48 h; for CC50: read-out: LC50 (the source's name)
# [9] = Growth inhibition of human SF268 cells after 48 hrs by SRB assay; format: functional; settings: SF-268, 48 h; for CC50: read-out: LC50 (the source's name)
# [10] = Growth inhibition of human SNB75 cells after 48 hrs by SRB assay; format: functional; settings: SNB-75, 48 h
# MDA-MB-435 = experiment: Growth inhibition of human MDA-MB-435 cells after 48 hrs by SRB assay; format: functional; settings: MDA-MB-435, 48 h
# [11] = Growth inhibition of human UACC257 cells after 48 hrs by SRB assay; format: functional; settings: UACC-257, 48 h; for CC50: read-out: LC50 (the source's name)
# [12] = Growth inhibition of human OVCAR3 cells after 48 hrs by SRB assay; format: functional; settings: OVCAR-3, 48 h; for CC50: read-out: LC50 (the source's name)
# [13] = Growth inhibition of human OVCAR4 cells after 48 hrs by SRB assay; format: functional; settings: OVCAR-4, 48 h; for CC50: read-out: LC50 (the source's name)
# [14] = Growth inhibition of human OVCAR5 cells after 48 hrs by SRB assay; format: functional; settings: OVCAR-5, 48 h
# [15] = Growth inhibition of human OVCAR8 cells after 48 hrs by SRB assay; format: functional; settings: OVCAR-8, 48 h; for CC50: read-out: LC50 (the source's name)
# [16] = Growth inhibition of human NCI-ADR-RES cells after 48 hrs by SRB assay; format: functional
# [17] = Growth inhibition of human SKOV3 cells after 48 hrs by SRB assay; format: functional; settings: SK-OV-3, 48 h
# 786-0 = experiment: Growth inhibition of human 786-0 cells after 48 hrs by SRB assay; format: functional; settings: 786-0, 48 h; for CC50: read-out: LC50 (the source's name)
# ACHN = experiment: Growth inhibition of human ACHN cells after 48 hrs by SRB assay; format: functional
# [18] = Growth inhibition of human RXF393 cells after 48 hrs by SRB assay; format: functional; settings: RXF 393, 48 h
# [19] = Growth inhibition of human DU145 cells after 48 hrs by SRB assay; format: functional; settings: DU-145, 48 h
# MDA-MB-468 = experiment: Growth inhibition of human MDA-MB-468 cells after 48 hrs by SRB assay; format: functional; settings: MDA-MB-468, 48 h; for CC50: read-out: LC50 (the source's name)
# [20] = molecular target: Hepatocyte growth factor receptor (Homo sapiens) (UniProt P08581); experiment: Inhibition of c-Met (unknown origin) at 10 uM
# [21] = molecular target: Aurora kinase A (Homo sapiens) (UniProt O14965); experiment: Inhibition of Aurora A (unknown origin) at 10 uM
# [22] = molecular target: Cyclin-dependent kinase 2 (Homo sapiens) (UniProt P24941); experiment: Inhibition of CDK-2 (unknown origin) at 10 uM
# [23] = molecular target: Mast/stem cell growth factor receptor Kit (Homo sapiens) (UniProt P10721); experiment: Inhibition of c-Kit (unknown origin) at 10 uM
# [24] = read-out: LC50 (the source's name)
# Chain of Aurora kinase A (Homo sapiens) (O14965 whole entry): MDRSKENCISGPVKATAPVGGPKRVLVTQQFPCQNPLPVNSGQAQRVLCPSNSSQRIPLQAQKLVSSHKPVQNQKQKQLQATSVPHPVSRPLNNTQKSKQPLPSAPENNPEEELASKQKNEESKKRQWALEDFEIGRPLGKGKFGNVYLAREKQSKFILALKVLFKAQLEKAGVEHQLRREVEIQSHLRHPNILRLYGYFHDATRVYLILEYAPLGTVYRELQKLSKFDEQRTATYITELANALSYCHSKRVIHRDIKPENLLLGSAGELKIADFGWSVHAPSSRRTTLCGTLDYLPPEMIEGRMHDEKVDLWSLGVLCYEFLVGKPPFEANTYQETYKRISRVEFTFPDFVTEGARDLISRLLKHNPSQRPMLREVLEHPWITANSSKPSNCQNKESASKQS
# Chain of Mast/stem cell growth factor receptor Kit (Homo sapiens) (P10721 whole entry): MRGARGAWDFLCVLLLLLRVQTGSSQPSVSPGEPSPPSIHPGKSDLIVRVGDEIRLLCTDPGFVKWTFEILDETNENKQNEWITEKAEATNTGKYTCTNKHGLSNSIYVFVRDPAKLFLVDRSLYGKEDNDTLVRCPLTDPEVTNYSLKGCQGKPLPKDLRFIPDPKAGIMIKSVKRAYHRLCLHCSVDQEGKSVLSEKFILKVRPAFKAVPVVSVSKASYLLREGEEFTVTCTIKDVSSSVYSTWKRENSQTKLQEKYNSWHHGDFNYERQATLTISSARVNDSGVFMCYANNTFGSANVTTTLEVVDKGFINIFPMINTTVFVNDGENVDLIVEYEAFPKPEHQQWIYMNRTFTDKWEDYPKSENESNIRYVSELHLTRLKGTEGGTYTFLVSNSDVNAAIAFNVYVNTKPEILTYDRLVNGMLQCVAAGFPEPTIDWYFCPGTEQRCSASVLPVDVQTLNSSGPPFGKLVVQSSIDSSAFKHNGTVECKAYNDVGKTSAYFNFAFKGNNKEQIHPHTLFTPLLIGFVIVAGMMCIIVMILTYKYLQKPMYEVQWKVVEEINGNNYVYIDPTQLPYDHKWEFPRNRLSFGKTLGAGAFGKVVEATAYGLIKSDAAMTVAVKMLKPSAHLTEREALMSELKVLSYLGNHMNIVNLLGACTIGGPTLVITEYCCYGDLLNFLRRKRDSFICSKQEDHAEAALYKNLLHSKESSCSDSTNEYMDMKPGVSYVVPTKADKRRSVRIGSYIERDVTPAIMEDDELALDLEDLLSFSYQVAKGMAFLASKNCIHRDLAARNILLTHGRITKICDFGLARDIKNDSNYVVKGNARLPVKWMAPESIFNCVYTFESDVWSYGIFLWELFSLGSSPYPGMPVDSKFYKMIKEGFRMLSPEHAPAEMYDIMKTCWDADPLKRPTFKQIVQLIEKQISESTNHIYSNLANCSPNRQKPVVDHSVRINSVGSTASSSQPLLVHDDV
# Chain of Hepatocyte growth factor receptor (Homo sapiens) (P08581 whole entry): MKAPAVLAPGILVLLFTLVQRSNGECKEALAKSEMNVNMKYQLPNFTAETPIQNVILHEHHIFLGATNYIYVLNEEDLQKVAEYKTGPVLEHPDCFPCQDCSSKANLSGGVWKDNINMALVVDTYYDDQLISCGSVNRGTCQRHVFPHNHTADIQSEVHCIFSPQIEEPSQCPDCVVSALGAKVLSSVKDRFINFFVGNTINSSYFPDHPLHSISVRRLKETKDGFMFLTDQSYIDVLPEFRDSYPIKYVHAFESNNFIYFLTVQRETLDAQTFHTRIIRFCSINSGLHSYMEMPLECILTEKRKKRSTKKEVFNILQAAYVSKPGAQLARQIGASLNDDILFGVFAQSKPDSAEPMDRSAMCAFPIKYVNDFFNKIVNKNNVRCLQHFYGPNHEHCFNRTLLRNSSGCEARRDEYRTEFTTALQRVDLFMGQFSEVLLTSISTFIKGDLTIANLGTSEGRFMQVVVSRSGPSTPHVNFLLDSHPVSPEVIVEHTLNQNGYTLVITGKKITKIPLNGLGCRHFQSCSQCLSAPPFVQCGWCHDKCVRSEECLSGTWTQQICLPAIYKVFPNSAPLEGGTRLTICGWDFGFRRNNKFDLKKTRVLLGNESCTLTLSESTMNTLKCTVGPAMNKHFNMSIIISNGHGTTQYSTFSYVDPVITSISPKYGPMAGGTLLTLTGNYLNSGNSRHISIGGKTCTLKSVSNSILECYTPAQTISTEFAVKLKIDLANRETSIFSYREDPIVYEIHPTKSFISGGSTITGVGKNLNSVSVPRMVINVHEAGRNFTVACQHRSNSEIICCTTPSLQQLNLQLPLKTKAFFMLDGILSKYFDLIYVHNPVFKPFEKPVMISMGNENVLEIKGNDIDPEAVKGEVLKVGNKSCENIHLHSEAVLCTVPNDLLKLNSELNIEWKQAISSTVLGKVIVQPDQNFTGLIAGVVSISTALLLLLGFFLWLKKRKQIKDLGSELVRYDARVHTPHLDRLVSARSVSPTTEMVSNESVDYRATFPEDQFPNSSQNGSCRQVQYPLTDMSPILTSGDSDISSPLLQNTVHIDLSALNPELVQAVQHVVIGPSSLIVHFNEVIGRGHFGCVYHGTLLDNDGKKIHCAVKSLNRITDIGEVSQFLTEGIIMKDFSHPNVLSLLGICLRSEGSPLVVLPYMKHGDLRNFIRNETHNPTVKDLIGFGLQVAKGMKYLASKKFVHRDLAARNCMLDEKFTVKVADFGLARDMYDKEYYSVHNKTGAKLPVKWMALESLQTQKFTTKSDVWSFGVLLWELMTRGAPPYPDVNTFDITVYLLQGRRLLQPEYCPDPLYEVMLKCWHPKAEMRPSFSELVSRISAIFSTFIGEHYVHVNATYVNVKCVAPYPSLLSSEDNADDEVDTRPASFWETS
compound,measurement,setting,value
NS(=O)(=O)c1ccc(Nc2nccc(Nc3ccc4[nH]ncc4c3)n2)cc1,pIC50,[1],4.47
same,solubility,[2],Insoluble
COc1ccc(Nc2nccc(Nc3ccc4[nH]ncc4c3)n2)cc1,GI50,CCRF-CEM,2.61 µM
same,LC50 (concentration for 50% net cell kill),CCRF-CEM,> 100 µM
same,TGI,CCRF-CEM,4.67 µM
same,GI50,K562,2.1 µM
same,LC50,K562,> 100 µM
same,TGI,K562,4.67 µM
same,GI50,[3],1.55 µM
same,LC50,[3],> 100 µM
same,TGI,[3],4.67 µM
same,GI50,[4],1.99 µM
same,LC50,[4],> 100 µM
same,TGI,[4],4.67 µM
same,GI50,SR,1.75 µM
same,TGI,SR,4.67 µM
same,CC50,SR,> 100 µM
same,GI50,A549,3.46 µM
same,TGI,A549,14.3 µM
same,CC50,A549,78.8 µM
same,GI50,EKVX,5 µM
same,TGI,EKVX,17.9 µM
same,CC50,EKVX,42.3 µM
same,GI50,NCI-H23,2.35 µM
same,TGI,NCI-H23,6.27 µM
same,CC50,NCI-H23,87.3 µM
same,GI50,NCI-H460,2.7 µM
same,LC50 (50% lethal concentration),NCI-H460,> 100 µM
same,TGI,NCI-H460,38.2 µM
same,GI50,NCI-H522,1.86 µM
same,LC50,NCI-H522,15.6 µM
same,TGI,NCI-H522,4.77 µM
same,GI50,[5],2.59 µM
same,LC50,[5],25.4 µM
same,TGI,[5],7.21 µM
same,GI50,[6],2.88 µM
same,TGI,[6],8.05 µM
same,CC50,[6],27.6 µM
same,GI50,[7],2.06 µM
same,TGI,[7],4.91 µM
same,CC50,[7],73.1 µM
same,GI50,KM12,3.45 µM
same,TGI,KM12,24.2 µM
same,CC50,KM12,> 100 µM
same,GI50,[8],3.31 µM
same,TGI,[8],> 100 µM
same,CC50,[8],> 100 µM
same,GI50,[9],4.2 µM
same,TGI,[9],28.6 µM
same,CC50,[9],> 100 µM
same,GI50,[10],4.58 µM
same,LC50,[10],51.7 µM
same,TGI,[10],20.3 µM
same,GI50,MDA-MB-435,2.1 µM
same,LC50,MDA-MB-435,20.1 µM
same,TGI,MDA-MB-435,5.7 µM
same,GI50,[11],5.41 µM
same,TGI,[11],16.9 µM
same,CC50,[11],41.1 µM
same,GI50,[12],3.15 µM
same,TGI,[12],10.6 µM
same,CC50,[12],44 µM
same,GI50,[13],2.99 µM
same,TGI,[13],11.8 µM
same,CC50,[13],55.6 µM
same,GI50,[14],3.33 µM
same,TGI,[14],> 100 µM
same,CC50,[14]; [24],> 100 µM
same,GI50,[15],2.24 µM
same,TGI,[15],5.39 µM
same,CC50,[15],> 100 µM
same,GI50,[16],2.18 µM
same,LC50,[16],29.4 µM
same,TGI,[16],5.75 µM
same,GI50,[17],7.04 µM
same,LC50,[17],58.8 µM
same,TGI,[17],21.7 µM
same,GI50,786-0,1.74 µM
same,TGI,786-0,4.75 µM
same,CC50,786-0,16.1 µM
same,GI50,ACHN,2.89 µM
same,TGI,ACHN,11.7 µM
same,CC50,ACHN; [24],45 µM
same,GI50,[18],1.98 µM
same,LC50 (50% lethal concentration),[18],24.3 µM
same,TGI,[18],6.45 µM
same,GI50,[19],3.31 µM
same,LC50,[19],41.7 µM
same,TGI,[19],12.9 µM
same,GI50,MDA-MB-468,1.7 µM
same,TGI,MDA-MB-468,4.55 µM
same,CC50,MDA-MB-468,20.6 µM
same,inhibition,[20],42%
same,inhibition,[21],91%
same,inhibition,[22],71%
same,inhibition,[23],85%
COc1cccc(Nc2nccc(Nc3ccc4[nH]ncc4c3)n2)c1,GI50,CCRF-CEM,0.9 µM
same,LC50 (concentration for 50% net cell kill),CCRF-CEM,21.7 µM
same,TGI,CCRF-CEM,4.56 µM
same,GI50,K562,1.3 µM
same,LC50,K562,7.13 µM
same,TGI,K562,3.89 µM
same,GI50,[3],0.52 µM
same,LC50,[3],28.4 µM
same,TGI,[3],2.83 µM
same,GI50,[4],1.36 µM
same,LC50,[4],50.1 µM
same,TGI,[4],4.19 µM
same,GI50,SR,1.34 µM
same,TGI,SR,4.93 µM
same,CC50,SR,20.6 µM
same,GI50,A549,1.71 µM
same,TGI,A549,3.74 µM
same,CC50,A549,8.22 µM
same,GI50,EKVX,1.64 µM
same,TGI,EKVX,4.09 µM
same,CC50,EKVX,10.5 µM
same,GI50,NCI-H23,1.69 µM
same,TGI,NCI-H23,3.83 µM
same,CC50,NCI-H23,8.7 µM
same,GI50,NCI-H460,1.64 µM
same,LC50 (50% lethal concentration),NCI-H460,11.5 µM
same,TGI,NCI-H460,4.17 µM
same,GI50,NCI-H522,1.48 µM
same,LC50,NCI-H522,5.54 µM
same,TGI,NCI-H522,2.86 µM
same,GI50,[5],1.57 µM
same,LC50,[5],6.76 µM
same,TGI,[5],3.26 µM
same,GI50,[6],1.79 µM
same,TGI,[6],3.36 µM
same,CC50,[6],6.29 µM
same,GI50,[7],1.59 µM
same,TGI,[7],3.23 µM
same,CC50,[7],6.54 µM
same,GI50,KM12,1.64 µM
same,TGI,KM12,4.81 µM
same,CC50,KM12,17.4 µM
same,GI50,[8],2.41 µM
same,TGI,[8],6.13 µM
same,CC50,[8],21 µM
same,GI50,[9],1.86 µM
same,TGI,[9],5.89 µM
same,CC50,[9],22.5 µM
same,GI50,[10],1.39 µM
same,LC50,[10],7.08 µM
same,TGI,[10],3.13 µM
same,GI50,MDA-MB-435,1.49 µM
same,LC50,MDA-MB-435,6.78 µM
same,TGI,MDA-MB-435,3.18 µM
same,GI50,[11],2.04 µM
same,TGI,[11],3.73 µM
same,CC50,[11],6.79 µM
same,GI50,[12],1.58 µM
same,TGI,[12],4.07 µM
same,CC50,[12],11.1 µM
same,GI50,[13],1.46 µM
same,TGI,[13],4.03 µM
same,CC50,[13],12.5 µM
same,GI50,[15],1.67 µM
same,TGI,[15],4.39 µM
same,CC50,[15],13.4 µM
same,GI50,[16],1.54 µM
same,LC50,[16],14.8 µM
same,TGI,[16],4.36 µM
same,GI50,[17],2.31 µM
same,LC50,[17],16.4 µM
same,TGI,[17],5.4 µM
same,GI50,786-0,1.46 µM
same,TGI,786-0,2.91 µM
same,CC50,786-0,5.82 µM
same,GI50,[18],1.06 µM
same,LC50 (50% lethal concentration),[18],5.1 µM
same,TGI,[18],2.33 µM
same,GI50,[19],1.3 µM
same,LC50,[19],6.24 µM
same,TGI,[19],2.85 µM
same,GI50,MDA-MB-468,1.25 µM
same,TGI,MDA-MB-468,2.77 µM
same,CC50,MDA-MB-468,6.13 µM
same,inhibition,[20],54%
same,inhibition,[21],76%
same,inhibition,[22],76%
same,inhibition,[23],80%
